# Source: US7531320B2, “Modulation of β-catenin/TCF-activated transcription” (priority 2003, dated 2009)
# Columns and labels:
# [1] = test system: caspase-3/7 in SW480 cells; assay: Caspase-3/7 activity assay, SW480 cells; format: cell-based, human; conditions: 25 μM, 24 hours, compared to CCD18Co cells
# Description: FIG. 6. • A. COMPOUND 1 arrests cells in G1. FACS analysis was performed on SW480 (lower panel) and HCT116 (upper panel) cells treated for 24 hours with either COMPOUND 1 (25 μM) (right) or control (0.5% DMSO (left). 5.5×10^6 cells were fixed and stained with propidium iodide (PI). G0/G1, S, and G2/M are indicated by arrows. • B. COMPOUND 1 selectively activates caspases in colon carcinoma cell lines. SW480 and HCT116 (left graph) cells (10^5) along with the normal colonocytes, CCD18Co (right graph) were treated with either control (0.5% DMSO) or COMPOUND 1 (25 μM). 24 hours post treatment, cells were lysed and the caspase-3/7 enzymatic activities were measured. Relative fluorescence units (RFU) were calculated by subtracting the unit values of the blank (control, without cells) from the treated samples (COMPOUND 1 or control) and plotted.
# SW480, HCT116, and CCD18Co cells were plated at 10^5 cells per well (96-well plates) for 24 hours prior to treatment. 25 μM of COMPOUND 1 or control (0.5% DMSO) was added to each well. 24 hours post treatment, cells were lysed and caspase activity was measured using a caspase-3/7 activity kit (Apo-One Homogeneous caspase-3/7 assay, #G77905, Promega). Relative fluorescence units (RFU) were obtained by subtracting the unit values of the blank (control, without cells) from the experimental measured values. […]
# full-length mouse CBP = target: T1, full-length mouse CBP (Mus musculus, UniProt P45481); assay: 14C-labeled COMPOUND 1 incorporation into SW480 nuclear lysates transfected with CBP; format: binding; conditions: 100 μM and 200 μM cold COMPOUND 1, dose dependent
# T1 construct: vectors expressing full-length Xenopus laevis β-catenin (2.2 μg) or full-length mouse CBP (1.1 μg); expressed in transfected cells; host or cells: SW480
# Description: FIG. 1. COMPOUND 1 inhibits β-catenin/TCF transcription. • A(i) and A(ii). Structures of COMPOUND 1, COMPOUND 2, COMPOUND 3, COMPOUND 4, and COMPOUND 5. • B(i) and B(ii). […] SW480 cells (10^5), (FIG. 1B(i)), were transfected with β-catenin/TCF luciferase construct. Cells were treated with COMPOUND 1 (1-64 μM). 24 hours post treatment lysates were prepared and subjected to dual luciferase assay. The data is represented in different form in FIG. 1B(ii). • C. COMPOUND 1 has no effect on NFAT reporter construct. Stably transfected Jurkat cells, right panel, with an NFAT reporter construct, were stimulated with PMA (10 ng/ml)/lonomycin (1 μg/ml), and treated with COMPOUND 1 (0.781-50 μM). 24 hours post treatment lysates were prepared and subjected to dual luciferase assay. All experiments were performed in duplicate and the values plotted as means +/−standard deviation. • D. CBP is the molecular target of COMPOUND 1. […] The lysates were desalted using G-25 1 cc columns (Pharmacia) to remove the unbound ^14C-labeled-COMPOUND 1, and ^14C-labeled-COMPOUND 1 incorporation was measured.
# A series of further investigations were performed to further validate that COMPOUND 1 binds CBP. […] Cell lysates were then desalted using G-25 columns to remove the unbound ^14C-labeled COMPOUND 1 and the incorporation of radioactivity was measured.
# CBP (1-111) = target: T2, CBP (1-111) (Mus musculus, UniProt P45481); assay: Pull-down of CBP deletion constructs on COMPOUND 2 coated beads, competition with excess COMPOUND 1; format: binding; conditions: CBP (1-111), (1-211), (1-351) in SW480 lysates, 150 μM COMPOUND 1
# T2 construct: 6xHis (C); HSV tag (C); expressed in transfected cells
# T2 sequence (P45481 1-110): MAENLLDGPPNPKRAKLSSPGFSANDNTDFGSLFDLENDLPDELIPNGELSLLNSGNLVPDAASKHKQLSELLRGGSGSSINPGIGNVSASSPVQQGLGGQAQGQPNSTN
# T1 sequence (P45481 whole entry): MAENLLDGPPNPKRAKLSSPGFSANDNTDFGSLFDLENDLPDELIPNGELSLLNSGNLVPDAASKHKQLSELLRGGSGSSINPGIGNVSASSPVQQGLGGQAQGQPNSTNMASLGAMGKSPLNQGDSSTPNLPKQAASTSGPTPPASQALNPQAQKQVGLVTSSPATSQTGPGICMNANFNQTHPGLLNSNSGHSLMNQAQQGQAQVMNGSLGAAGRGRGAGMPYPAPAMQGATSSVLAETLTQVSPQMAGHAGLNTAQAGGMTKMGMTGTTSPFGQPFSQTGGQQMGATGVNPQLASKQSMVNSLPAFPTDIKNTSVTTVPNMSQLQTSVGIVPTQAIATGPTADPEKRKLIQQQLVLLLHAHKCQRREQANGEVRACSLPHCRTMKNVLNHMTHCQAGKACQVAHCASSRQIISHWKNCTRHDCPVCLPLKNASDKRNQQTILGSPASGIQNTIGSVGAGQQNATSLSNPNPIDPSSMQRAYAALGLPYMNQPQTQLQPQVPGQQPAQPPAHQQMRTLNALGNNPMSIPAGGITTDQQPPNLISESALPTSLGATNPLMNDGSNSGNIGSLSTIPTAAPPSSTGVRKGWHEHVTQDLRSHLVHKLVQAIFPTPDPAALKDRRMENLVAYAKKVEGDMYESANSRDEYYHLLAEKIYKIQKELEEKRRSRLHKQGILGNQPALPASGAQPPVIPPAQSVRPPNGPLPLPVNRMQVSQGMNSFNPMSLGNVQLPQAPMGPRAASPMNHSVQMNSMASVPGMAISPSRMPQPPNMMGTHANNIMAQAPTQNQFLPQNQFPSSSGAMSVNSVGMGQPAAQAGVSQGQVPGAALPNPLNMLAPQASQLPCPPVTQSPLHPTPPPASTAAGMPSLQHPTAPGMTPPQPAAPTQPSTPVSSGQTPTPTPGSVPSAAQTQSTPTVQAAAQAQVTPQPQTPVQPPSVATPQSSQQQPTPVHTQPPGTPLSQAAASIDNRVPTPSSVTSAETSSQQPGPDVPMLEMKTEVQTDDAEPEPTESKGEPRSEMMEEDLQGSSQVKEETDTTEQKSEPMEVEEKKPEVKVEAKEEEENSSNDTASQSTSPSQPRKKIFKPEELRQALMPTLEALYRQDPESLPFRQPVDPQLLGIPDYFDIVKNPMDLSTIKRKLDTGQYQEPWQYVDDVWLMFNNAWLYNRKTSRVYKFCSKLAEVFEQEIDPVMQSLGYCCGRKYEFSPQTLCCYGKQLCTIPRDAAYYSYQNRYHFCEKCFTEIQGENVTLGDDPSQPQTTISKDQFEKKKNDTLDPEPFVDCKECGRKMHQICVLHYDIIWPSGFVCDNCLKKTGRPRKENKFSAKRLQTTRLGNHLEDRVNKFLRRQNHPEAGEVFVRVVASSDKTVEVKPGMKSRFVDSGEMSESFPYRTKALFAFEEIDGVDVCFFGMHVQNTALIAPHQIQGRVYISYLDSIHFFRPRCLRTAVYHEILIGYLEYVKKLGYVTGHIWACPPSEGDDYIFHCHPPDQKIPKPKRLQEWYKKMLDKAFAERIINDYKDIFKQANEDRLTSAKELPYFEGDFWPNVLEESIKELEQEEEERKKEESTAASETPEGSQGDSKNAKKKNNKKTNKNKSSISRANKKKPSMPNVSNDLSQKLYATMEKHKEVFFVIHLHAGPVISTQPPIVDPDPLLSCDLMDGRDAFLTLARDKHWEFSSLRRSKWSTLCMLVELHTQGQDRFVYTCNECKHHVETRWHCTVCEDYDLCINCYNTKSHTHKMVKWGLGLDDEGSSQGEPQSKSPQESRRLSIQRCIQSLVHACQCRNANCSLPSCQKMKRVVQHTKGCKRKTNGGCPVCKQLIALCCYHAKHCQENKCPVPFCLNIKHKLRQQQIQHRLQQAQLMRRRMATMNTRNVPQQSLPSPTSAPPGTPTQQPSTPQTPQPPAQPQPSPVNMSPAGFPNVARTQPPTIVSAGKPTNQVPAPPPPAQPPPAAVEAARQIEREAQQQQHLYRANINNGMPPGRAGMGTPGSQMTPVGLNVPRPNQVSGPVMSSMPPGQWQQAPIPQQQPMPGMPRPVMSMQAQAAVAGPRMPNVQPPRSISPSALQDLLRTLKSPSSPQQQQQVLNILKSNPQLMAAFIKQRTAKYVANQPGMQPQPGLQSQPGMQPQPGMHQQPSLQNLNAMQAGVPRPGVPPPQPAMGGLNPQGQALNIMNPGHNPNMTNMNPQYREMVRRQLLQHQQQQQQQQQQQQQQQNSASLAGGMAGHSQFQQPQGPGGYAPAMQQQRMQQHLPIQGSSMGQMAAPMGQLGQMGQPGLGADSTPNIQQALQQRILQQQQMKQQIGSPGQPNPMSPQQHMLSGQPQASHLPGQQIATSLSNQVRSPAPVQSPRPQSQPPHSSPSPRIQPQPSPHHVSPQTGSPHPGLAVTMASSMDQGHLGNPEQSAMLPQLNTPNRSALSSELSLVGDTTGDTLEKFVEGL
structure (smiles),measurement,setting,value
O=C1C(Cc2ccc(O)cc2)N2C(=O)CCN(C(=O)NCc3ccccc3)C2CN1Cc1cccc2ccccc12 (stereo not drawn) [COMPOUND 1],Caspase-3/7 activity,[1],specifically and significantly activated
same,Competition of 14C-labeled COMPOUND 1 incorporation by cold COMPOUND 1,full-length mouse CBP,competed away
same,Competition of CBP fragment binding to COMPOUND 2 beads by excess COMPOUND 1,CBP (1-111),strongly competed away
